Data on 22 compounds can be found in patent US12528815B2, “5-amino-8-(4-pyridyl)-[1,2,4]triazolo[4,3-c]pyrimidin-3-one compounds for use against cancer” (Nxera Pharma UK Limited, priority 2020, dated 2026).

Assay [1] deals with T1, human adenosine A1 receptor (Homo sapiens, UniProt P30542).
T1 construct: expressed in transfected cells; host or cells: HEK293 cells infected with BacMam (the same paragraph also labels the preparation CHO-hA1)
T1 sequence (P30542 1-326): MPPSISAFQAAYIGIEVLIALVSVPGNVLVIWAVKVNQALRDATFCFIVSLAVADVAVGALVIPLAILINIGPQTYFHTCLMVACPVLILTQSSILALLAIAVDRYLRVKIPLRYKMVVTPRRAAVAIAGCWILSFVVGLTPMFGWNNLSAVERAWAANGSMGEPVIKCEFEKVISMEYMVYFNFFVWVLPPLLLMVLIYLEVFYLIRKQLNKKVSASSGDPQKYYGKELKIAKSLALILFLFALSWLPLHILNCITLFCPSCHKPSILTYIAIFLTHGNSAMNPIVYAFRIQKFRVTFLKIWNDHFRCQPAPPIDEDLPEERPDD
Description: Inhibition binding assay, human adenosine A1 receptor membranes, [3H]DPCPX. Conditions: 1 nM [3H]DPCPX, 25° C., 1 h; IC50 converted to Ki with Cheng-Prusoff; read-out: A1 pKi (converted). As to the method: (§1) Inhibition binding assays were performed using 0.2 μg of membranes prepared from HEK293 cells infected with BacMam human adenosine A2A receptor or 1.4 μg of membranes prepared from HEK293 cells infected with BacMam human adenosine A1 receptor. Membranes were incubated in 50 mM Tris-HCl (HEK293-hA2A; pH 7.4) or 50 mM Tris-HCl, 100 mM NaCl, 10 mM MgCl2 (CHO-hA1; pH 7.4) in the presence of varying concentrations of test compound and 1 nM [^3H]ZM241385 (HEK293-hA2A) or [^3H]DPCPX (CHO-hA1) at 25° C. for 1 h. The assay was then terminated by rapid filtration onto GF/B grade Unifilter plates using a TomTec cell harvester, followed by 5×0.5 ml washes with ddH2O. Nonspecific binding was defined in the presence of 1 μM CGS15943 (HEK293-hA2A) or 1 μM DPCPX (CHO-hA1). Bound radioactivity was determined by liquid scintillation counting and inhibition curves were analysed using a four-parameter logistic equation. IC50 values were converted to Ki values with the Cheng-Prusoff equation using a KD value derived from saturation binding studies.

Assay [2] has as its target T2, human adenosine A2A receptor (Homo sapiens, UniProt P29274).
T2 construct: expressed in transfected cells; host or cells: HEK293 cells infected with BacMam
Description: Inhibition binding assay, human adenosine A2A receptor membranes, [3H]ZM241385. Particulars: 1 nM [3H]ZM241385, HEK293-hA2A membranes, 25° C., 1 h; IC50 converted to Ki with Cheng-Prusoff; read-out: A2A pKi (converted). As to the method:
as §1

Bounds are passed on as bounds.

T2 sequence (P29274 whole entry): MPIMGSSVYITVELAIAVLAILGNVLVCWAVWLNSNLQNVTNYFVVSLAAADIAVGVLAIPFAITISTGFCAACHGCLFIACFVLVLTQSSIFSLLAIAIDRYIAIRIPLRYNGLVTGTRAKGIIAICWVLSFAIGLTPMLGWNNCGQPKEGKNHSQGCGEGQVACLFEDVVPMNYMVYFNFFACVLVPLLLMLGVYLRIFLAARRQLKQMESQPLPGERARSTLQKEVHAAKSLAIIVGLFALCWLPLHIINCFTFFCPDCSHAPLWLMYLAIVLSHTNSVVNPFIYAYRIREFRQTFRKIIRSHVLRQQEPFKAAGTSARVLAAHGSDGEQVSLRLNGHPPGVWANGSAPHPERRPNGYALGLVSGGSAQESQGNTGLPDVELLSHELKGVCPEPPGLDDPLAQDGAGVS

In the case of `COc1ncccc1Cn1nc2c(-c3cc(C)nc(C)c3)c(-c3ccccc3)nc(N)n2c1=O` [Example 1-28, 5-amino-8-(2,6-dimethyl-4-pyridyl)-2-[(2-methoxy-3-pyridyl)methyl]-7-phenyl-[1,2,4]triazolo[4,3-c]pyrimidin-3-one], the Ki is 63.1 nM in assay [1] and 0.2 nM in assay [2].

Turning to `Cc1cc(-c2c(-c3ccccc3)nc(N)n3c(=O)n(C4CSCc5ccccc54)nc23)cc(C)n1` (centres unmarked) [Example 1-13, 5-amino-8-(2,6-dimethyl-4-pyridyl)-2-isothiochroman-4-yl-7-phenyl-[1,2,4]triazolo[4,3-c]pyrimidin-3-one], the Ki in assay [1] was 158 nM; in assay [2], 1.26 nM.

For `Cc1cc(-c2c(-c3ccccc3)nc(N)n3c(=O)n(Cc4ccc(F)c(N)n4)nc23)cc(C)n1` [Example 1-36, 5-amino-2-[(6-amino-5-fluoro-2-pyridyl)methyl]-8-(2,6-dimethyl-4-pyridyl)-7-phenyl-[1,2,4]triazolo[4,3-c]pyrimidin-3-one], the Ki was 100 nM in assay [1] and 0.251 nM in assay [2].

As to `Cc1cc(-c2c(-c3ccccc3)nc(N)n3c(=O)n(C[C@@H]4CN(C(=O)OC(C)(C)C)CCO4)nc23)cc(C)n1` [Example 2-69, tert-butyl (2S)-2-[[5-amino-8-(2,6-dimethyl-4-pyridyl)-3-oxo-7-phenyl-[1,2,4]triazolo[4,3-c]pyrimidin-2-yl]methyl]morpholine-4-carboxylate], the Ki in assay [1] was 398 nM; in assay [2], 6.31 nM.

On to `Cc1cc(-c2c(-c3ccccc3)nc(N)n3c(=O)n(C[C@H]4COCCN4C)nc23)cc(C)n1` [Example 2-77, 5-amino-8-(2,6-dimethyl-4-pyridyl)-2-[[(3S)-4-methylmorpholin-3-yl]methyl]-7-phenyl-[1,2,4]triazolo[4,3-c]pyrimidin-3-one], for which the Ki was 398 nM in assay [1] and 3.16 nM in assay [2].

As for `Cc1cc(-c2c(-c3ccccc3)nc(N)n3c(=O)n(CCCn4ccccc4=O)nc23)cc(C)n1` [Example 2-112, 5-amino-8-(2,6-dimethylpyridin-4-yl)-2-(3-(2-oxopyridin-1(2H)-yl)propyl)-7-phenyl-[1,2,4]triazolo[4,3-c]pyrimidin-3(2H)-one], the Ki is 200 nM in assay [1] and 3.16 nM in assay [2].

For `CCn1nc2c(-c3cc(C)nc(C)c3)c(-c3ccccc3)nc(N)n2c1=O` [Example 2-3, 5-amino-8-(2,6-dimethyl-4-pyridyl)-2-ethyl-7-phenyl-[1,2,4]triazolo[4,3-c]pyrimidin-3-one], the Ki in assay [1] was 631 nM; in assay [2] it was 20 nM.

On to `Cc1cc(-c2c(-c3ccccc3)nc(N)n3c(=O)n(CC4CCNCC4)nc23)cc(C)n1` [Example 2-68, 5-amino-8-(2,6-dimethyl-4-pyridyl)-7-phenyl-2-(4-piperidylmethyl)-[1,2,4]triazolo[4,3-c]pyrimidin-3-one], for which the Ki was over 3160 nM in assay [1] and 398 nM in assay [2].

Turning to `Cc1cc(-c2c(-c3ccccc3)nc(N)n3c(=O)n(Cc4ccc(O)cc4)nc23)cc(C)n1` [Example 1-4, 5-amino-8-(2,6-dimethyl-4-pyridyl)-2-[(4-hydroxyphenyl)methyl]-7-phenyl-[1,2,4]triazolo[4,3-c]pyrimidin-3-one], the Ki is 501 nM in assay [1] and 1.26 nM in assay [2].

With `Cc1cc(-c2c(-c3ccccc3)nc(N)n3c(=O)n(Cc4ccccc4C)nc23)cc(C)n1` [Example 1-17, 5-amino-8-(2,6-dimethyl-4-pyridyl)-2-(o-tolylmethyl)-7-phenyl-[1,2,4]triazolo[4,3-c]pyrimidin-3-one], the Ki was 1 nM in assay [1] and 0.316 nM in assay [2].

Consider `Cc1cc(-c2c(N3CCOCC3)nc(N)n3c(=O)n(CCC(F)(F)F)nc23)cc(C)n1` [Example 3-1, 5-amino-8-(2,6-dimethyl-4-pyridyl)-7-morpholino-2-(3,3,3-trifluoropropyl)-[1,2,4]triazolo[4,3-c]pyrimidin-3-one], for which the Ki in assay [1] was over 3160 nM; in assay [2], 316 nM.

On to `Cc1cc(-c2c(-c3ccccc3)nc(N)n3c(=O)n(CCN4CCN(C)CC4)nc23)cc(C)n1` [Example 2-102, 5-amino-8-(2,6-dimethyl-4-pyridyl)-2-[2-(4-methylpiperazin-1-yl)ethyl]-7-phenyl-[1,2,4]triazolo[4,3-c]pyrimidin-3-one], for which the Ki was over 3160 nM in assay [1] and 126 nM in assay [2].

For `Cc1cc(-c2c(-c3ccccc3)nc(N)n3c(=O)n(CC4CCCS(=O)(=O)C4)nc23)cc(C)n1` (single isomer, unassigned) [Example 2-89-iso-2, 5-amino-8-(2,6-dimethyl-4-pyridyl)-2-[(1,1-dioxothian-3-yl)methyl]-7-phenyl-[1,2,4]triazolo[4,3-c]pyrimidin-3-one], the figures for the Ki in assay [1] and in assay [2] were 316 nM and 25.1 nM, respectively.

In the case of `CC1=NN(c2cccc(NCCn3nc4c(-c5cc(C)nc(C)c5)c(-c5ccccc5)nc(N)n4c3=O)c2)C(=O)C1` [Example 1-98, 5-amino-8-(2,6-dimethyl-4-pyridyl)-2-[2-[3-(3-methyl-5-oxo-4H-pyrazol-1-yl)anilino]ethyl]-7-phenyl-[1,2,4]triazolo[4,3-c]pyrimidin-3-one], the Ki was 1000 nM in assay [1] and 79.4 nM in assay [2].

On to `Cc1cc(-c2c(-c3ccc(F)cc3)nc(N)n3c(=O)n(Cc4cccnn4)nc23)cc(CO)n1` [Example 1-58, 5-amino-7-(4-fluorophenyl)-8-[2-(hydroxymethyl)-6-methyl-4-pyridyl]-2-(pyridazin-3-ylmethyl)-[1,2,4]triazolo[4,3-c]pyrimidin-3-one], for which the values for the Ki in assay [1] and in assay [2] were 631 nM and 12.6 nM, respectively.

Regarding `Cc1cc(-c2c(-c3ccccc3)nc(N)n3c(=O)n(C4CCCN(C)C4)nc23)cc(C)n1` (centres unmarked) [Example 2-70, 5-amino-8-(2,6-dimethyl-4-pyridyl)-2-(1-methyl-3-piperidyl)-7-phenyl-[1,2,4]triazolo[4,3-c]pyrimidin-3-one], the Ki was 501 nM in assay [1] and 3.98 nM in assay [2].

Take `Cc1cc(-c2c(-c3ccccc3)nc(N)n3c(=O)n(Cc4ccc(F)cc4C)nc23)cc(C)n1` [Example 1-18, 5-amino-8-(2,6-dimethyl-4-pyridyl)-2-[(4-fluoro-2-methyl-phenyl)methyl]-7-phenyl-[1,2,4]triazolo[4,3-c]pyrimidin-3-one]: the Ki in assay [1] was 10 nM; in assay [2], 0.0794 nM.

`Cc1cc(-c2c(-c3ccccc3)nc(N)n3c(=O)n(C(C)c4ccccn4)nc23)cc(C)n1` (centres unmarked) [Example 1-20, 5-amino-8-(2,6-dimethyl-4-pyridyl)-7-phenyl-2-[1-(2-pyridyl)ethyl]-[1,2,4]triazolo[4,3-c]pyrimidin-3-one]: the Ki in assay [1] is 316 nM; in assay [2], 12.6 nM.

With `Cc1cc(-c2c(-c3ccccc3)nc(N)n3c(=O)n(Cc4ccccc4OCC4CC4)nc23)cc(C)n1` [Example 1-22, 5-amino-2-[[2-(cyclopropylmethoxy)phenyl]methyl]-8-(2,6-dimethyl-4-pyridyl)-7-phenyl-[1,2,4]triazolo[4,3-c]pyrimidin-3-one], the Ki is 2 nM in assay [1] and 0.158 nM in assay [2].

Regarding `COc1cc(-c2c(-c3ccc(F)cc3)nc(N)n3c(=O)n(Cc4ccc(Cl)cn4)nc23)cc(CO)n1` [Example 1-68, 5-amino-2-[(5-chloro-2-pyridyl)methyl]-7-(4-fluorophenyl)-8-[2-(hydroxymethyl)-6-methoxy-4-pyridyl]-[1,2,4]triazolo[4,3-c]pyrimidin-3-one], the Ki was over 1580 nM in assay [1] and 1.26 nM in assay [2].

On to `Nc1nc(-c2ccccc2)c(-c2cc(Cl)nc(C(F)(F)F)c2)c2nn(Cc3ccc(F)cn3)c(=O)n12` [Example 1-79, 5-amino-8-[2-chloro-6-(trifluoromethyl)-4-pyridyl]-2-[(5-fluoro-2-pyridyl)methyl]-7-phenyl-[1,2,4]triazolo[4,3-c]pyrimidin-3-one], for which the values for the Ki in assay [1] and in assay [2] were 251 nM and 2.51 nM, respectively.

In the case of `Cc1cc(-c2c(-c3ccccc3)nc(N)n3c(=O)n(C[C@H]4CN(C(=O)OC(C)(C)C)CCN4C)nc23)cc(C)n1` [Example 2-84, tert-butyl (R)-3-((5-amino-8-(2,6-dimethylpyridin-4-yl)-3-oxo-7-phenyl-[1,2,4]triazolo[4,3-c]pyrimidin-2(3H)-yl)methyl)-4-methylpiperazine-1-carboxylate], the Ki in assay [1] was 316 nM; in assay [2] it was 6.31 nM.
